Data: article PMC5045383 (Oncotarget, 2016)

Columns and labels:
FLT3-ITD = test: Kinase kinetic assay (ADP-Glo, varied ATP); format: biochemical; conditions: range of ATP concentrations
Method: Kinetic analyses of FLT3-ITD were performed using a luminometric kinase assay varying the concentration of ATP using the ADP-Glo reagents (Promega). […] After 60 min incubation at RT, various concentrations of ATP, 0.2 μg/μL FLT3 substrate Poly (4:1 Glu, Tyr) peptide added and incubated for 60 min at 37°C. The overall rate of reaction is determined as the slope of the decreasing phase of the reaction. Each data point was collected in duplicate and kinetic parameters were obtained using Prism 5.0 (GraphPad Software, San Diego, CA).

MOLM-14 xenograft tumor = MOLM-14 xenograft tumor model; format: in vivo, Balb/c-nu mice; conditions: daily oral gavage, MOLM14 xenograft
Source text: Five weeks old female Balb/c-nu mice were purchased from the Shanghai Experimental Center, Chinese Science Academy (Shanghai, China). All animals were housed in a specific pathogen-free facility and used according to the animal care regulations of Hefei Institutes of Physical Science Chinese Academy of Sciences. Prior to implantation, cells were harvested during exponential growth. 10 million MOLM-14 cells in 1640 were formulated as a 1:1 mixture with Matrigel (BD Biosciences) and injected into the subcutaneous space on the right flank of Balb/c-nu mice. Daily oral administration was initiated when MOLM-14 tumors had reached a size of 200 to 400 mm^3. Animals were then randomized into treatment groups of 10 mice each for efficacy studies. […] Tumor growth was measured daily after A674563 treatment. Tumor volumes were calculated as follows: tumor volume (mm^3) = [(W^2 × L)/2] in which width (W) is defined as the smaller of the two measurements and length (L) is defined as the larger of the two measurements.

FLT3 wt = target: FLT3 wt; set-up: method as in PMID 22037378; conditions: cited from earlier work
[1] = tested on: FLT3-ITD-positive AML patient primary cells; test: Anti-proliferation, AML patient primary cells; format: cell-based, human; conditions: at 1 μM; compared to normal bone marrow cells
Method: Mononuclear cells were isolated from samples from AML patients identified as harboring mutant FLT3. Cells were tested in liquid culture (DMEM, supplemented with 20% FBS) in the presence of different concentrations of inhibitors. All blood and bone marrow samples from AML patients were obtained under approval of the Dana Farber Cancer Institute Institutional Review Board. The ethics committees approved the consent procedure. All studies were performed with ACUC approved protocols at DFCI.

[2] = target: FLT3-ITD (ITD+kinase domain); test: ADP-Glo biochemical assay; conditions: ATP final 50 μM
Method: FLT3 wt/FLT3-ITD/FLT3-D835Y cytoplasmic fragment with his tag was cloned into baculovirus expression vector pFASTHT-A. The recombinant bacmid was transfected into SF9 by Cellfectin (Invitrogen). High titer viral stocks were obtained by two rounds of amplification of the virus. The protein was expressed by infecting SF9 cells with high titer viral stocks for 48 h. Cells were harvested and re-suspended in lysis buffer (50 mM Tris pH 7.5, 150 mM NaCl, and 1 mM PMSF). The cells were lysed by ultra sonication and the cell debris was removed by ultracentrifugation. The supernatant was incubated with Ni-affinity beads (GE). The beads were then washed by lysis buffer containing 50–250 mM imidazole. The elute was loaded to superdex 75. The protein was concentrated to 1 mg/ml and aliquots were frozen and stored at −80°C. The protein was used for ADP-Glo™ kinase assay.
The reaction in each tube was started immediately by adding ATP and kept going for an hour under 37°C. After the tube cooled for 5 minutes at room temperature, 5 μL solvent reactions were carried out in a 384-well plate. […] At the end, 10 μL of kinase detection reagent was added into the well and incubated for 30 minutes to produce a luminescence signal. Luminescence signal was measured with an automated plate reader (Perkin-Elmer Envision) and each measurement was performed in triplicate.

MV4-11 = test: Cell cycle analysis (PI, flow cytometry); format: cell-based, human; conditions: 24 hours
Method: (§1) The cells were fixed in 70% cold ethanol and incubated at −20°C overnight, then stained with PI/RNase staining buffer (BD Pharmingen). Flow cytometry was performed using a FACS Calibur (BD), and results were analyzed by ModFit software.

MOLM14 = test: Cell cycle analysis (PI, flow cytometry); format: cell-based, human; conditions: 24 hours
Method: as §1

Compound: Cc1[nH]nc2ccc(-c3cncc(OC[C@@H](N)Cc4ccccc4)c3)cc12 [A674563]
- mode of inhibition (kinetics analysis) (FLT3-ITD): ATP competitive inhibitor
- tumor growth inhibition (TGI) (MOLM-14 xenograft tumor; 25 mg/kg/d): 45%
- tumor growth inhibition (TGI) (MOLM-14 xenograft tumor; 50 mg/kg/day): 78%
- Kd (FLT3 wt): 540 nM
- anti-proliferation activity in patient primary cells [1]: potent anti-proliferation activity
- IC50 [2]: 134 nM
- %G0–G1 (MV4-11; MV4-11, 0.3 μM): 68.69%
- %G2–M (MV4-11; MV4-11, 0.3 μM): 2.61%
- %S (MV4-11; MV4-11, 0.3 μM): 28.7%
- %G0–G1 (MV4-11; MV4-11, 3 μM): 68.62%
- %G2–M (MV4-11; MV4-11, 3 μM): 8.56%
- %S (MV4-11; MV4-11, 3 μM): 22.82%
- %G0–G1 (MOLM14; MOLM14, 0.3 μM): 47.08%
- %G2–M (MOLM14; MOLM14, 0.3 μM): 11.27%
- %S (MOLM14; MOLM14, 0.3 μM): 41.65%
- %G0–G1 (MOLM14; MOLM14, 3 μM): 53.87%
- %G2–M (MOLM14; MOLM14, 3 μM): 22.65%
- %S (MOLM14; MOLM14, 3 μM): 23.49%
